According to patent US11458127B2, “Methods of treating brain tumors using combination therapy” (SERVIER PHARMACEUTICALS LLC, priority 2017, dated 2022):
Read-outs that look alike come from different tables or passages of the source.

What was measured:
mutant IDH1 proteins [1] = conditions: cellular assays; cited from earlier work
2HG production = assay: animal or person; conditions: po, read-out: Inhibition of 2HG production within the brain tumors
Protocol: Ivosidenib was orally dosed at 150 mg/kg, twice daily, for Groups 3-5.

mutant IDH1 proteins [2] = conditions: biochemical assays; cited from earlier work
mutant IDH2 (mIDH2) = conditions: cited from earlier work
mIDH1 cells = conditions: in vitro; R. J. Molenaar et al. 2015; cited from earlier work
mIDH1-driven gliomas = conditions: some model systems; D. Rohle et al. 2013; cited from earlier work
mutant IDH1 (mIDH1) = conditions: cited from earlier work

Compound | Activity on mutant IDH1 proteins (mutant IDH1 proteins [1]) | inhibition at 150 mg/kg (2HG production) [%] | Activity on mutant IDH1 proteins (mutant IDH1 proteins [2]) | Inhibition of mutant IDH2 (mutant IDH2 (mIDH2)) | Sensitivity of treated mIDH1 cells to radiation therapy (mIDH1 cells) | Effect on growth of mIDH1-driven gliomas (mIDH1-driven gliomas) | Inhibition of mutant IDH1 (mutant IDH1 (mIDH1))
N#Cc1ccnc(N2C(=O)CC[C@H]2C(=O)N(c2cncc(F)c2)[C@H](C(=O)NC2CC(F)(F)C2)c2ccccc2Cl)c1 [Ivosidenib, (S)—N—((S)-1-(2-Chlorophenyl)-2-(3,3-difluorocyclobutylamino)-2-oxoethyl)-1-(4-cyanopyridin-2-yl)-N-(5-fluoropyridin-3-yl)-5-oxopyrrolidine-2-carboxamide] | inhibitor of mutant IDH1 proteins | > 98 | inhibitor of mutant IDH1 proteins | – | – | – | –
Cc1ccccc1C(C(=O)NC1CCCCC1)N(C(=O)Cn1ccnc1C)c1cccc(F)c1 (stereo not shown) [AGI-5198] | – | – | – | not mutant IDH2 (mIDH2) | desensitized to radiation therapy | can repress growth of mIDH1-driven gliomas in some model systems | inhibit mutant IDH1 (mIDH1)
